Our source for the mass density and viscosity values is the NIST ThermoML archive (doi:10.1016/j.jct.2017.02.009).

Structures are written as SMILES. ± gives the expanded uncertainty stated by the source.

In general, mass density refers to mass per unit of volume. As a reminder, the viscosity is the resistance of a fluid to flow.

The conditions of data set [1]: 100 kPa, Liquid; for mass density: Vibrating tube method; for viscosity: Capillary tube (Ostwald / Ubbelohde) method.
Data set [2] is described as follows: xn = mol fraction of the nth substance listed. The note with it: 100 kPa, Liquid, x1 = 1; for mass density: Vibrating tube method.

Consider `O=C1CCCO1` [γ-butyrolactone], for which the mass density in data set [1] (293.15 K) is 1129.4 ± 1 kg/m3; in data set [1] (298.15 K) it was 1124.5 ± 1 kg/m3; in data set [1] (303.15 K) it was 1119.6 ± 1 kg/m3; in data set [1] (313.15 K), 1109.8 ± 1 kg/m3. Moreover, in data set [1] (298.15 K), the viscosity worked out at 1.72 ± 0.024 mPa·s.

As to `C[S+](C)[O-]` [dimethyl sulfoxide], the mass density in data set [1] (293.15 K) is 1100.2 ± 1 kg/m3; in data set [1] (298.15 K) it was 1095.2 ± 1 kg/m3; in data set [1] (303.15 K) it was 1090.2 ± 1 kg/m3; in data set [1] (313.15 K) it was 1080.2 ± 1 kg/m3. Also, in data set [1] (298.15 K), the viscosity was found to be 1.985 ± 0.025 mPa·s.

For `C[S+](C)[O-]` [dimethyl sulfoxide] + O=C1CCCO1, the mass density in data set [2] (293.15 K) worked out at 1100.2 ± 1 kg/m3; in data set [2] (298.15 K), 1095.2 ± 1 kg/m3; in data set [2] (303.15 K), 1090.2 ± 1 kg/m3; in data set [2] (313.15 K) it was 1080.2 ± 1 kg/m3. Moreover, the viscosity in data set [2] (298.15 K, Capillary tube (Ostwald / Ubbelohde) method) is 1.985 ± 0.025 mPa·s.
